# Data from the Kinase Knowledgebase extract (Sharma et al. 2016).
# Molecular target: MAPK14 (human) (UniProt Q16539)
# Test: Inhibtion of MAPK14 Kinase Activity
# Sequence of MAPK14 (human) (Q16539 whole entry, looked up): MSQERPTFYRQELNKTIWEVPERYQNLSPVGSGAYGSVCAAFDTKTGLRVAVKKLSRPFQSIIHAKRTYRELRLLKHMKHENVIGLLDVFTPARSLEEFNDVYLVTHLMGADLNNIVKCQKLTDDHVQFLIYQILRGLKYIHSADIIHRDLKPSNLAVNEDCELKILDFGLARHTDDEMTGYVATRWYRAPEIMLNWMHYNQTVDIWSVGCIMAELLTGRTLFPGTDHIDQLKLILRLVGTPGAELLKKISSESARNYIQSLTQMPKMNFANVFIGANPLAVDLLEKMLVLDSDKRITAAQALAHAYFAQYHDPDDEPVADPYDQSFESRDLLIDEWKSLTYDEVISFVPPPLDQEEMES
compound,measurement,value
CC(C)C[C@H](NCCCOc1ccc(-n2c(N)c(C(=O)c3ccc(F)cc3F)ccc2=O)cc1)C(=O)O,IC50,< 100 nM
